Source: patent US20110059869A1, “Method for Increasing Enzymatic Reactivity” (RIKEN, priority 2008, published 2011)

Assays:
HindIII = test: DNA fragment II HindIII cleavage reactions on bead and plate surfaces with added substances; assay type: biochemical; settings: 0.6 M sorbitol; beads and plate; not of the same degree as trehalose
Protocol: The effect of the presence of substances other than trehalose on enzymatic activity was examined for enzymatic reactions on the surface of a support. Sorbitol was employed as the added reagent. Trehalose was also added and a sorbitol+trehalose reaction system was examined (Scheme 7).
HindIII cleavage reactions were conducted on biotin-labeled DNA fragment II (Seq. ID No. 5, Scheme 4) on the surface of beads by adding trehalose, glucose, sorbitol, and betaine, and the 104 by DNA fragment released was detected. Paramagnetic streptavidin beads were washed with accessory 1× binding buffer, recovered with a magnetic stand to remove the supernatant, and suspended in the same buffer. […] The precipitate of DNA fragments thus obtained was dissolved in 1× TE (pH 7.5) and analyzed with Bioanalyzer DNA 1000 assay (Agilent Technologies).
Trehalose and sorbitol were added and a HindIII cleavage reaction was conducted on a horizontal plate surface on biotin-labeled DNA fragment II (Seq. ID No. 5, Scheme 4) and the 104 by DNA fragments that were released were detected. […] The precipitate of DNA fragments obtained was dissolved in 1× TE (pH 7.5) and analyzed with Bioanalyzer DNA 1000 assay (Agilent Technologies).

[1] = State of streptavidin bead reaction solution during enzymatic reaction; assay type: physicochemical; settings: 0.6 M additive; extended / three hours restriction enzyme reaction
Excerpt: Thus, with no nonuniformity in enzymatic activity, the various enzymatic reactions were promoted and the quantity of target DNA recovered increased.
This was attributed to characteristics such as the viscosity and diffusing effect of trehalose or sorbitol.

OC[C@@H](O)[C@@H](O)[C@H](O)[C@@H](O)CO [sorbitol, D(+) sorbitol]
enzymatic activity (yield of DNA recovered) (HindIII): high enzymatic activity was exhibited on all reaction surfaces | uniformity of beads in the reaction solution [1]: uniformity in the solution of beads was maintained
